Assay results as given in ChEMBL document CHEMBL4422688, “(+)- and (-)-Alternarilactone A: Enantiomers with a Diepoxy-Cage-like Scaffold from an Endophytic Alternaria sp” (J Nat Prod, 2019).
The source made the active and inactive calls. The calls are words filed in the database; no cut-off is given here.

What was measured:
PC-12 = test: Cytoprotective activity against corticosterone-induced apoptosis in rat PC12 cells incubated for 24 hrs by MTS assay; format: functional, cell-based
Staphylococcus aureus = test: Antibacterial activity against Staphylococcus aureus assessed as inhibition of microbial growth incubated for 12 hrs by microdilution method; format: functional, organism-based
Salmonella typhi = test: Antibacterial activity against Salmonella typhi assessed as inhibition of microbial growth incubated for 12 hrs by microdilution method; format: functional, organism-based; conditions: Salmonella enterica subsp. enterica serovar Typhi
Gaeumannomyces graminis = test: Antifungal activity against Gaeumannomyces graminis incubated for 48 hrs; format: functional, organism-based
Verticillium = test: Antifungal activity against Verticillium cinnabarinum incubated for 48 hrs; format: functional

SMILES | Activity (PC-12) | Activity (Staphylococcus aureus) | Activity (Salmonella typhi) | Activity (Gaeumannomyces graminis) | Activity (Verticillium)
COc1cc(O)c2c(c1)[C@@]13O[C@]4(C)C[C@@](O)(C(=O)C[C@@]1(C)O4)[C@H]3OC2=O | Active | inactive | inactive | inactive | inactive
COc1cc(O)c2c(c1)[C@]13O[C@@]4(C)C[C@](O)(C(=O)C[C@]1(C)O4)[C@@H]3OC2=O | Active | inactive | inactive | inactive | inactive
